Measured values published in patent US7230033B2, “Pest control compositions and methods for their use” (United States of America as represented by the Secretary of …, priority 2000, dated 2007).

Columns and labels:
X. cheopis adults = test: Flea bioassay, treated 2-dram vials, probit analysis; type: in vivo, Xenopsylla cheopis; conditions: 24 h exposure; for Slope: probit
Protocol: Med. […] A control treated with acetone only was run with each series. Tick and flea susceptibility was evaluated using a modification of the disposable pipette method of Barnard et al. (J. Econ. Entomol., 74:466-69, 1981) and Maupin and […]. Med. […] The inner surface of 2-dram friction cap vials were treated with the compound/acetone solution, or acetone only as a control, and left to air-dry overnight (see also, […] et al., J. Med. […] Three to 4 holes were made in the plastic cap to allow for air exchange. Nymphal ticks and adult fleas were then placed directly into the vials using forceps. […] For each time point, if ticks and fleas were incapable of movement, maintaining normal posture, leg coordination, ability to right themselves, or any signs of life, they were considered moribund or dead.

[1] = test system: ticks, fleas, and mosquitoes; test: Residual activity, general statements (Examples 9, 17); type: in vivo; conditions: ticks
[2] = test system: fourth-instar Aedes aegypti larvae; test: Larval mosquito bioassay; type: in vivo; conditions: Aedes aegypti larval mosquitoes, concentration of the 1 ml added to 150 ml water
Protocol: Individual groups of 10 fourth-instar Aedes aegypti larvae were contained in 150 ml of water and exposed to […] of essential oils prepared by 2-fold serial dilutions ranging from 0.06%–5.0% in 1 ml of acetone. A control group of larvae were exposed to 1 ml of acetone only.
It is important to note that larval mosquitoes are tested in their natural environment, i.e., in water. The particular assays used herein involved groups of 10 larval mosquitoes in 150 ml of water. The weight percentages reported for lethal concentration for larval mosquitoes are the weight percentages added to the 150 ml water (as opposed to the final percentage of the tested compound(s) in the 150 ml water). As one of skill in the art will appreciate, test compound(s) added to a volume of water (such as, 150 ml) can be dramatically diluted depending upon the water solubility of the tested compound. […] If the tested compound is an oil (such as, carvacrol, nootkatone, or 13-hydroxy-valencene), it most likely floats on the surface of the water.

Ixodes scapularis nymphs = test: Residual activity, aged treated vials, ticks; type: in vivo; conditions: for LC90, residual activity: NE = not effective
Protocol: (§1) Briefly, groups of 10 nymphal I. scapularis and X. cheopis fleas were used in all tests (more than a total of 5,240 nymphs and 4,860 fleas were exposed to the compounds). The inner surface of 2-dram friction cap vials were treated with the compound/acetone solution, or acetone only as a control, and left to air-dry overnight (see also, Panella et al., J. Med. Entomol., 42(3):352-358, 2005. Three to 4 holes were made in the plastic cap to allow for air exchange. Nymphal ticks and adult fleas were then placed directly into the vials using forceps. Vials containing ticks or fleas were placed in desiccators for 24 h at 21° C. and 90% RH. Morbidity and mortality was recorded at 1, 2, 4, 8, and 24 h after initial exposure.

[3] = test system: Xenopsylla cheopis adults; test: Residual activity, aged treated vials, fleas; type: in vivo
Protocol: as §1

[4] = test system: Ixodes scapularis nymphal ticks; test: Tick repellency bioassay; type: in vivo
From the text: One-hundred (100) μl of test compound was pipetted onto a cotton-tipped applicator mounted to the bottom center of a 1 dram glass shell vial using non-toxic modeling clay. A total of 8 concentrations were screened with doses ranging from 0.04–5.0%. Applicators treated with acetone only served as controls. A line was drawn around the perimeter of the vial immediate to the base of the treated cotton portion of the applicator. The area above the line was designated the “repellent zone”. The vial was allowed to air-dry 1 h before a single tick was introduced. Vials were covered with a single piece of mesh and fitted with a hollowed-out plastic cap to cover the opening of the vial; this prevented the tick from escaping but allowed for air exchange. Vials were breathed upon by investigators at 1 min intervals and a hand was placed over the test vials to provide stimuli for ticks to pass into the repellent zone. […] If the tick crossed over and remained in the “repellent zone” for ≧5 sec, the tick was deemed non-repelled by the test compound. Each test was replicated 10 times using a new tick for each test. Repellent activity was determined at 1, 2, 3, and 4 h after treatment. Probit analysis was used to determine repellent efficacy (RD50 and RD95).

Ae. aegypti adults = test: Adult mosquito bottle bioassay; type: in vivo, Aedes aegypti; conditions: for Slope: probit; for LC50 (15 min) / LC50 (24 h) / LC90 (15 min) / LC90 (24 h): Aedes aegypti adult mosquitoes, alone, or 1:1 with carvacrol (in parenthesis)
Protocol: (§2) Adult mosquitoes were tested using the bottle bioassay method of Brogden and McAllister (J. Am. Mosq. Control Assoc., 14:159–64, 1998) with minor modifications. Natural product extracts were two-fold serially diluted for a total of 8 concentrations ranging from 0.002% to 0.25% in 1.5 ml of acetone. Individual dilutions were added to 250 ml Wheaton glass bottles and capped. Bottles were manipulated to evenly coat all inner surfaces. The caps were removed and bottles were allowed to air-dry overnight. Once bottles were completely dry, 10–50 (in some tests 25–50) adult mosquitoes were aspirated into the bottles. Mosquitoes were held in the bottles for 24 h at 23° C. and 85% RH. Morbidity and mortality were recorded at 15, 30, 45, and 60 min and 24 hour intervals. One bottle for each replicate was treated with acetone only and served as a control. The dose-mortality data was evaluated with probit analysis, using the LdP Line software, to determine LC50 and LC90 values.
Carvacrol was combined with compound 7, 9, or 10 at a 1:1 ratio (7.5 μl of carvacrol:7.5 μl of compound 7, 9, or 10 was added to 2,985 μl of acetone for a 0.5% solution, from which serial dilutions were made), and tested as previously described against nymphal ticks and adult and larval mosquitoes.

I. scapularis nymphs = test: Tick bioassay, treated 2-dram vials, probit analysis; type: in vivo, Ixodes scapularis; conditions: for Slope: probit; for LC50 (1 h) / LC50 (24 h) / LC90 (1 hr) / LC90 (24 h): Ixodes scapularis nymphal ticks, alone, or 1:1 with carvacrol (in parenthesis)
From the text: A control treated with acetone only was run with each series.
For each time point, if ticks and fleas were incapable of movement, maintaining normal posture, leg coordination, ability to right themselves, or any signs of life, they were considered moribund or dead.

Aedes aegypti adults = test: Residual activity, aged treated bottles, mosquitoes; type: in vivo
Protocol: as §2

[5] = test system: adult I. scapularis ticks; test: Treated-vial biocidal screening with 2% acetone solutions (Example 2), adult ticks, residual; type: in vivo, Ixodes scapularis; conditions: treated vials sat 4 wk; arthropods added for the final 24 h
Protocol: (§3) Samples of the compounds listed below were obtained as described in Example 1, and screened for biocidal activities against nymphal Ixodes scapularis. In this example, 2% acetone solutions (wt/vol) of the compounds were applied to inner surfaces of 2-dram friction cap vials. Vials and caps were treated then allowed to dry for a minimum of 4 hours before placing 10 nymphs in each container. These same vials were used to challenge additional nymphs and adult I. scapularis ticks and adult Xenopsylla cheopis fleas through five weeks to observe any possible residual activity.
(§4) Numbers in parentheses refer to length of treatment in terms of hours (h) or weeks (wk). Data is presented in terms of number killed/number tested. For test periods longer than 24 hours, the treated vials were allowed to sit for the stated period after drying (72 h, 4 wk, or 5 wk) and each group of arthropods was added to the vials for the final 24 h of the test period.

[6] = test system: nymphal Ixodes scapularis; test: Treated-vial biocidal screening with 2% acetone solutions (Example 2), tick nymphs; type: in vivo; conditions: treated vials sat 72 h; arthropods added for the final 24 h
Protocol: as §3, §4

[7] = test system: adult Xenopsylla cheopis fleas; test: Treated-vial biocidal screening with 2% acetone solutions (Example 2), adult fleas, residual; type: in vivo; conditions: treated vials sat 5 wk; arthropods added for the final 24 h
Protocol: as §3, §4

[8] = 1 h after compound applied to applicator, listed as Nootkatone (Compound 9)
[9] = 4 h after compound applied to applicator, listed as Nootkatone (Compound 9)
[10] = 24 h exposure, NE = not effective at concentrations tested
[11] = 2 weeks after treatment, NE = not effective
[12] = 1 h after compound applied to applicator
[13] = 4 h after compound applied to applicator

Structure (SMILES) | Slope (X. cheopis adults) | residual activity [1] | LC50 (1 h) [2] | LC50 (24 h) [2] | LC90 (1 hr) [2] | LC90 (24 h) [2] | Slope, residual activity (Ixodes scapularis nymphs; 1 week after treatment) | LC90, residual activity (Ixodes scapularis nymphs; 1 week after treatment) | Slope, residual activity (Ixodes scapularis nymphs; 2 weeks after treatment) | LC90, residual activity (Ixodes scapularis nymphs; 2 weeks after treatment) | Slope, residual activity ([3]; 1 week after treatment) | Slope, residual activity ([3]; 2 weeks after treatment) | Slope (Ae. aegypti adults; 24 h exposure) | LC50 (15 min) (Ae. aegypti adults) | LC50 (24 h) (Ae. aegypti adults) | LC90 (15 min) (Ae. aegypti adults) | LC90 (24 h) (Ae. aegypti adults) | Slope (I. scapularis nymphs; 24 h exposure) | LC50 (1 h) (I. scapularis nymphs) | LC50 (24 h) (I. scapularis nymphs) | further results
C=C(C)[C@@H]1CCC2=CC(=O)C[C@@H](C)[C@]2(C)C1 [Compound 9, Nootkatone] | 2.9 | considerable biological activity through the four week time period | 6.51 % (wt:vol) | 1.574 % (wt:vol) | 22.644 % (wt:vol) | 2.757 % (wt:vol) | 1.304 | 0.08 percent concentration, wt:vol | 2.649 | 0.027 percent concentration, wt:vol | 1.633 | 2.571 | 2.845 | 0.136 % (wt:vol) | 0.0075 % (wt:vol) | 0.453 % (wt:vol) | 0.021 % (wt:vol) | 3.061 | 0.016 % (wt:vol) | 0.0033 % (wt:vol) | LC90 (X. cheopis adults; NE = not effective at concentrations tested): 0.018 percent concentration, wt:vol; Slope, residual activity ([3]; 4 weeks after treatment): 3.135; Slope (±SEM) ([4]; 1 h, listed as Nootkatone (Compound 9)): 1.326 (±0.345); RD50 [4, 8]: 0.101 % (wt:vol); RD95 [4, 8]: 1.758 % (wt:vol); Slope (±SEM) ([4]; 4 h, listed as Nootkatone (Compound 9)): 1.406 (±0.299); RD50 [4, 9]: 0.173 % (wt:vol); RD95 [4, 9]: 2.561 % (wt:vol); LC90 (Ae. aegypti adults; [10]): 0.021 percent concentration, wt:vol; LC90 (I. scapularis nymphs; [10]): 0.0087 percent concentration, wt:vol; LC90 (1 hr) (I. scapularis nymphs): 0.331 % (wt:vol); LC90 (24 h) (I. scapularis nymphs): 0.0087 % (wt:vol); LC50 (1 h) (I. scapularis nymphs; listed as compound 9): 0.016 % (wt:vol); LC90, residual activity (Aedes aegypti adults; 1 week after treatment): 0.018 percent concentration, wt:vol; Slope, residual activity (Aedes aegypti adults; 1 week after treatment): 4.336; Slope, residual activity (Aedes aegypti adults; 2 weeks after treatment): 4.014; LC90, residual activity (Aedes aegypti adults; [11]): 0.0088 percent concentration, wt:vol; Slope, residual activity (Aedes aegypti adults; 4 weeks after treatment): 4.169
C=C(CO)C1CCC2=CCC[C@@H](C)[C@]2(C)C1 (stereo partly drawn) [Compound 10, 13-hydroxy-valencene] | 3.143 | considerable biological activity through the four week time period | 5.132 % (wt:vol) | 0.975 % (wt:vol) | 13.425 % (wt:vol) | 1.23 % (wt:vol) | 3.005 | 0.019 percent concentration, wt:vol | 1.781 | 0.044 percent concentration, wt:vol | 2.218 | 2.442 | 2.094 | 0.077 % (wt:vol) | 0.0034 % (wt:vol) | 0.373 % (wt:vol) | 0.014 % (wt:vol) | 2.562 | 0.017 % (wt:vol) | 0.0054 % (wt:vol) | LC50 (24 h) ([2]; listed as 13-hydroxy-valencene): 1.23 % (wt:vol); Slope, residual activity (Ixodes scapularis nymphs; 4 weeks after treatment): 1.285; Slope (±SEM) ([4]; 1 h): 1.332 (±0.313); RD50 [4, 12]: 0.095 % (wt:vol); RD95 [4, 12]: 1.637 % (wt:vol); Slope (±SEM) ([4]; 4 h): 1.066 (±0.307); RD50 [4, 13]: 0.114 % (wt:vol); RD95 [4, 13]: 3.993 % (wt:vol); LC90 (1 hr) (I. scapularis nymphs): 0.065 % (wt:vol); LC90 (24 h) (I. scapularis nymphs): 0.014 % (wt:vol); LC90, residual activity (Aedes aegypti adults; 1 week after treatment): 0.058 percent concentration, wt:vol; Slope, residual activity (Aedes aegypti adults; 1 week after treatment): 3.286; Slope, residual activity (Aedes aegypti adults; 2 weeks after treatment): 6.932; LC90, residual activity (Aedes aegypti adults; [11]): 0.021 percent concentration, wt:vol; Slope, residual activity (Aedes aegypti adults; 4 weeks after treatment): 2.645; LC90, residual activity (Aedes aegypti adults; 4 weeks after treatment, NE = not effective): 0.04 percent concentration, wt:vol
CC(C)=CCc1ccc(O)c(=O)cc1C(C)C [Compound 11, Nootkatin] | – | – | – | – | – | – | – | – | – | – | – | – | 1.327 | – | – | – | – | – | – | – | I. scapularis adults (4 wk), number killed/number tested [5]: 0/5; I. scapularis nymphs (72 h), number killed/number tested [6]: 0/5; X. cheopis adults (5 wk), number killed/number tested [7]: 0/5
